Test systems include EKVX NSCLC; HCC-2998 colon; HCT-116 colon; HOP-62 NSCLC; HOP-92 NSCLC; LOX IMVI melanoma; M14 melanoma; NCI-H23 lung; NCI-H522 lung; NCI/ADR-RES ovarian; OVCAR-3 ovarian; OVCAR-4 ovarian; PC-3 prostate; RPMI-8226 leukemia; RXF 393 renal; SK-OV-3 ovarian; SNB-75 CNS; SR leukemia; TK-10 renal; U251 CNS.
What all share (test): NCI-60 cell line screen, 48 h

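Protocol summary: plate cells (96-well), add compound at 5 concentrations, incubate 48 h, interpolate endpoints linearly. At the TGI there is no net growth.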 Where a SMILES comes first, the peptide text is derived from it. The star is where a group is joined. Boc = CC(C)(C)OC(=O)*

In the case of `COC(=O)CCc1ccc2c(c1)CC1(C2)Cc2ccc3c(c2C1)CCC3` (stereo unspecified), the TGI in the assay with EKVX NSCLC, with HCC-2998 colon, in the assay with HCT-116 colon, in the assay on HOP-62 NSCLC, in the assay on HOP-92 NSCLC and in the assay with LOX IMVI melanoma was over 100 µM in each case. Also, the TGI in the assay on M14 melanoma, in the assay with NCI-H23 lung, in the assay on NCI-H522 lung, in the assay with NCI/ADR-RES ovarian, in the assay on OVCAR-3 ovarian and in the assay on OVCAR-4 ovarian was over 100 µM each time. Moreover, the TGI in the assay on PC-3 prostate, with RPMI-8226 leukemia, in the assay on RXF 393 renal, in the assay on SK-OV-3 ovarian, in the assay on SNB-75 CNS and in the assay with SR leukemia was over 100 µM each time. The TGI with TK-10 renal and with U251 CNS was over 100 µM in each case.
As for `N#CC(c1ccccc1)N(CCc1ccccc1)C(=O)Oc1ccccc1` (stereo unspecified), the TGI is over 100 µM in the assay with EKVX NSCLC; over 100 µM in the assay on HCC-2998 colon; over 100 µM in the assay with HCT-116 colon; over 100 µM with HOP-62 NSCLC; 95.7 µM in the assay with HOP-92 NSCLC; over 100 µM in the assay on LOX IMVI melanoma. Further, the TGI with M14 melanoma, in the assay on NCI-H23 lung, with NCI-H522 lung, with NCI/ADR-RES ovarian, in the assay with OVCAR-3 ovarian and with OVCAR-4 ovarian was over 100 µM throughout. Besides, the TGI was over 100 µM in the assay on PC-3 prostate; over 100 µM in the assay on RPMI-8226 leukemia; over 100 µM with RXF 393 renal; over 100 µM with SK-OV-3 ovarian; 74.7 µM in the assay on SNB-75 CNS; over 100 µM with SR leukemia. Further, the TGI in the assay with TK-10 renal and with U251 CNS was over 100 µM throughout.
As to `CCOC(=O)C(CC(C)C)NC(=O)C(Cc1ccccc1)NC(=O)CNC(=O)OC(C)(C)C` (stereo not drawn) (Boc-Gly-Phe-Leu-OEt; configuration not given here), the TGI came to 54.1 µM with EKVX NSCLC; 37.2 µM in the assay with HCC-2998 colon; 32.6 µM in the assay with HCT-116 colon; 64 µM in the assay on HOP-62 NSCLC; 64 µM in the assay with HOP-92 NSCLC; 34.3 µM with LOX IMVI melanoma. Also, the TGI in the assay on M14 melanoma is 40.2 µM; in the assay on NCI-H522 lung, 34.8 µM; with NCI/ADR-RES ovarian it was over 100 µM; in the assay with OVCAR-3 ovarian it was 34.4 µM; in the assay on OVCAR-4 ovarian it was 71.1 µM; with PC-3 prostate, 35.7 µM. The TGI was 45.8 µM in the assay with RPMI-8226 leukemia; 49 µM in the assay on RXF 393 renal; 50.9 µM with SK-OV-3 ovarian; 38.6 µM in the assay on SNB-75 CNS; 36.5 µM in the assay with SR leukemia; 97.8 µM in the assay on TK-10 renal. This compound had a TGI in the assay with U251 CNS of 31.9 µM.
As for `O=C1N[C@@H]2c3c(Br)sc(Br)c3C(=O)[C@@H]2N1`, the TGI with EKVX NSCLC came out at 17.1 µM; in the assay on HCC-2998 colon, 3.42 µM; with HCT-116 colon, 3.88 µM; with HOP-62 NSCLC, 20.6 µM; with HOP-92 NSCLC, 12.5 µM; with LOX IMVI melanoma, 4.28 µM. For the same compound, the TGI in the assay with M14 melanoma is 16.5 µM; in the assay with NCI-H23 lung it was 17 µM; in the assay on NCI-H522 lung it was 11.2 µM; in the assay on NCI/ADR-RES ovarian it was over 70.6 µM; in the assay on OVCAR-3 ovarian, 6.72 µM; with OVCAR-4 ovarian it was 16.8 µM. Moreover, the TGI with PC-3 prostate stood at 10.4 µM; in the assay on RPMI-8226 leukemia, 18.5 µM; in the assay with RXF 393 renal, 14.3 µM; with SK-OV-3 ovarian it was 27.1 µM; in the assay on SNB-75 CNS, 18.4 µM; in the assay with SR leukemia, 4.72 µM. For the same compound, the TGI with TK-10 renal came out at 6.09 µM; in the assay with U251 CNS, 7.03 µM.
Consider `Cc1cc(C)c2c(c1)C(=O)C1(C2)Cc2c(ccc(C)c2C)C1=O` (stereo unspecified), for which the TGI with EKVX NSCLC, with HCC-2998 colon, with HCT-116 colon, with HOP-92 NSCLC, in the assay with LOX IMVI melanoma and in the assay with M14 melanoma was over 100 µM throughout. For the same compound, the TGI in the assay on NCI-H522 lung, in the assay on NCI/ADR-RES ovarian, with OVCAR-3 ovarian, in the assay with OVCAR-4 ovarian, with PC-3 prostate and in the assay on RPMI-8226 leukemia was over 100 µM in each case. For the same compound, the TGI with RXF 393 renal, in the assay on SNB-75 CNS, in the assay with SR leukemia, in the assay with TK-10 renal and with U251 CNS was over 100 µM in each case.
As to `CCOC(=O)c1c(N2CCOCC2)[nH]c(=O)c(C(c2ccc(Cl)c([N+](=O)[O-])c2)c2c(O)c(C(=O)OCC)c(N3CCOCC3)[nH]c2=O)c1O`, the TGI in the assay with EKVX NSCLC was over 100 µM; with HCC-2998 colon, over 100 µM; with HCT-116 colon, 63.6 µM; in the assay on HOP-62 NSCLC, over 100 µM; in the assay with HOP-92 NSCLC, 69.4 µM; in the assay with LOX IMVI melanoma, 48.1 µM. Besides, the TGI is 58.5 µM in the assay with M14 melanoma; 98.8 µM with NCI-H23 lung; 55.2 µM in the assay with NCI-H522 lung; over 100 µM in the assay with NCI/ADR-RES ovarian; 35.5 µM in the assay on OVCAR-3 ovarian; over 100 µM in the assay with OVCAR-4 ovarian. In addition, the TGI with PC-3 prostate is 50.1 µM; with RPMI-8226 leukemia, over 100 µM; in the assay with RXF 393 renal it was over 100 µM; with SK-OV-3 ovarian it was over 100 µM; with SNB-75 CNS, over 100 µM; in the assay on SR leukemia, over 100 µM. The TGI in the assay on TK-10 renal is over 100 µM; with U251 CNS, 41.9 µM.
Consider `c1ccc2nc3cc4c(cc3nc2c1)NC12CCCCC1CC1=C(CCCC1)N42` (stereo unspecified), for which the TGI in the assay on EKVX NSCLC, with HCC-2998 colon, in the assay on HCT-116 colon, with HOP-62 NSCLC, with HOP-92 NSCLC and in the assay with LOX IMVI melanoma was over 10 µM throughout. For the same compound, the TGI with M14 melanoma was 6.35 µM; in the assay with NCI-H23 lung, over 10 µM; in the assay with NCI-H522 lung, 8.37 µM; with NCI/ADR-RES ovarian it was over 10 µM; in the assay with OVCAR-3 ovarian it was 5.03 µM; in the assay with OVCAR-4 ovarian, 6.96 µM. For the same compound, the TGI in the assay with PC-3 prostate was 6.64 µM; in the assay with RPMI-8226 leukemia it was 5.52 µM; in the assay on RXF 393 renal it was 6.3 µM; with SK-OV-3 ovarian, over 10 µM; in the assay with SNB-75 CNS, 7.06 µM; in the assay on SR leukemia, 1.51 µM. Also, the TGI with TK-10 renal and in the assay on U251 CNS was over 10 µM throughout.

For the origin of these results see PubChem BioAssay (NCI).
